Source: patent publication US10213451B2, “Methods and compounds for modulating the secretion or expression of adhesion proteins or angiopoietins of cells” (PACIFIC ARROW LIMITED, priority 2004, dated 2019)
Where “and” joins values, the source holds several entries; their conditions need not be identical. Equal entries are not always repeated. Where two headings read alike, the source gives them in different places.

How the values were obtained:
Type in all cases: cell-based, human
[1] = test system: laminin expression in ES2 cells; experiment: Microarray gene expression, Table 3; conditions: for LAMC1, gene expression ratio to no drug control (D): probe 200770_s_at; for LAMB1 laminin, beta 1, gene expression ratio to no drug control (D): probe 201505_at; for LAMA4 laminin, alpha 4, gene expression ratio to no drug control (D): probe 202202_s_at; for LAMB1, gene expression ratio to no drug control (D): probe 211651_s_at; for LAMB2, gene expression ratio to no drug control (D): probe 216264_s_at
Description: (§1) Y/D is the ratio (in folds) of gene expression in cells treated with compound Y as compared with those of the no drug control (D),
(§2) YM/D is the ratio of gene expression in cells treated with compound YM (ACH-Y, Y without sugar moiety) compared with those of the no drug control (D)
(§3) Cell culture and drug-treatment.: ES2 cells were seeded in a T-25 flask with 4.5 million cells per flask for 24 hours. Cell culture was replaced with fresh medium with xanifolia-Y (Y) or DMSO no drug control (D) for 24 hours. Cells were then harvested for RNA isolation. Three experiments were done.
(§4) RNA extraction, labeling, hybridization, and data analysis. RNA was extracted from tumor cells using the Qiagen RNeasy Kit. RNA quality and quantity was checked by the Agilent BioAnalyzer and the NanoDrop® ND-1000 spectrophotometer respectively before further manipulation. The first and second cDNA strands were synthesized from 20 ng of total RNA using the Affymetrix T7 oligo(dT) primer protocol and kit for the two-cycle amplification. To produce amplified biotin-labeled-cRNA, the cDNA was […] by in vitro transcription using the MegaScript kit from Ambion. 15.0 μg of the labeled cRNA was fragmented and re-checked for concentration using the NanoDrop® ND-1000 spectrophotometer. A hybridization cocktail containing Affymetrix spike-in controls and fragmented labeled cRNA was loaded onto the Human U133 Plus 2.0 GeneChip® oligonucleotide array. The Affymetrix array (Affymetrix, Inc. Santa Clara, Calif.) is comprised of over 1,300,000 unique oligonucleotide features that represent greater than 38,500 well-substantiated human genes. The array was hybridized for 16 hours at 45° C. with rotation at 60 rpm then washed and stained with a strepavidin, R-phycoerythrin conjugate stain on the Affymetrix Fluidicis Station 450. Signal amplification was done using biotinylated antistreptavidin. The arrays were scanned using the GeneChip® 3000 confocal laser scanner with autoloader. The images were analyzed and quality control metrics recorded using Affymetrix GCOS software version 1.4. Lastly, the expression value for each gene was calculated using dChip PM-only model based or Plier algorithm.
(§5) Pairwise comparisons were made as follows: Treated vs. Control (Y vs. D), Modified Drug vs Control (YM/ACY-H vs. D) and Treated vs. Modified Drug (Y vs. YM/ACH-Y) Cel files analyzed using the Bioconductor package of R Statistical programming. Limma analysis generated a reasonable number of changing genes between the samples.
(§6) The raw data in the .CEL files were normalized by the GCRMA method (robust multi-array analysis). It is implemented in Bioconductor (http://www.bioconductor.org/). The raw signal intensity data were normalized, background corrected and summarized based on certain statistical models, and an expression value, in log 2-scale, is obtained per chip per probe set. Then the null hypothesis was tested that there's no significant changes in gene expression between the treatment pairs. This was done by LIMMA and is also implemented in Bioconductor. It uses empirical Bayes method to estimate the variance in gene expression. One comparison was made, namely, High Grade vs. Low Grade. The raw p-values were adjusted by the Benjamnin-Hochberg method for false discovery rate (FDR) control. All data sets contained a significant number of genes with a p-value less than 0.05, which is that the probability that a gene is NOT differential expressed (false positive) is 1:20.

ES2(ovarian) cells = experiment: MTT assay ES2; conditions: for viable cells by MTT assay: ES2, 10 ug/ml
[2] = test system: integrin (vitronectin receptor) expression in ES2 cells; experiment: Microarray gene expression, Table 2
Description: as §1, §2, §3, §4, §5
The raw data in the .CEL files were normalized by the GCRMA method (robust multi-array analysis). It is implemented in Bioconductor (http://www.bioconductor.org/). […]

[3] = test system: heparin sulfate expression in ES2 cells; experiment: Microarray gene expression, Table 10; conditions: for HSPG2 heparan sulfate proteoglycan 2 (perlecan), gene expression ratio to no drug control (D): probe 201655_s_at; for HS2ST1 heparan sulfate 2-O-sulfotransferase 1, gene expression ratio to no drug control (D): probe 203284_s_at; for HPSE Heparanase, gene expression ratio to no drug control (D): probe 219403_s_at
Description: as §1, §2, §3, §4, §5, §6

[4] = test system: fibronectin expression in ES2 cells; experiment: Microarray gene expression, Table 1
Description: as §1, §2, §3, §4, §5, §6

[5] = test system: potassium channel, subfamily U, protein expression in ES2 cells; experiment: Microarray gene expression, Table 18; conditions: probe 237273_at
Description: as §1, §2, §3
RNA extraction, labeling, hybridization, and data analysis. RNA was extracted from tumor cells using the Qiagen RNeasy Kit. RNA quality and quantity was checked by the Agilent BioAnalyzer and the NanoDrop® ND-1000 spectrophotometer respectively before further manipulation. […] The images were analyzed and quality control metrics recorded using Affymetrix GCOS software version 1.4. Lastly, the expression value for each gene was calculated using dChip PM-only model based or Plier algorithm.
Pairwise comparisons were made as follows: Treated vs. Control (Y vs. D), Modified Drug vs Control (YM/ACY-H vs. D) and Treated vs. Modified Drug (Y vs. YM/ACH-Y) Cel files analyzed using the Bioconductor package of R Statistical programming. […]

[6] = test system: insulin-like growth factor binding protein expression in ES2 cells; experiment: Microarray gene expression, Table 16; conditions: for IGFBP7 insulin-like growth factor binding protein 7, gene expression ratio to no drug control (D): probe 201163_s_at; for IGFBP4 insulin-like growth factor binding protein 4, gene expression ratio to no drug control (D): probe 201508_at; for IGFBP6 insulin-like growth factor binding protein 6, gene expression ratio to no drug control (D): probe 203851_at; for IGFBP1 insulin-like growth factor binding protein 1, gene expression ratio to no drug control (D): probe 205302_at
Description: as §1, §2, §3, §4, §5, §6

[7] = Homo sapiens, ES-2, ES2 cells, read-out: IC50

| Compound | LAMB1 laminin, beta 1, gene expression ratio to no drug control (D) [1] [folds] | LAMA4 laminin, alpha 4, gene expression ratio to no drug control (D) [1] [folds] | LAMB1, gene expression ratio to no drug control (D) [1] [folds] | LAMB2, gene expression ratio to no drug control (D) [1] [folds] | IC50 (ES2(ovarian) cells; [7]) [µg/mL] | ITGAV integrin, alpha V (vitronectin receptor), gene expression ratio to no drug control (D) ([2]; probe 202351_at) [folds] | ITGAV integrin, alpha V (vitronectin receptor), gene expression ratio to no drug control (D) ([2]; probe 236251_at) [folds] | HSPG2 heparan sulfate proteoglycan 2 (perlecan), gene expression ratio to no drug control (D) [3] [folds] | HS2ST1 heparan sulfate 2-O-sulfotransferase 1, gene expression ratio to no drug control (D) [3] [folds] | HPSE Heparanase, gene expression ratio to no drug control (D) [3] [folds] | FN1 fibronectin 1, gene expression ratio to no drug control (D) ([4]; probe 210495_x_at) [folds] | FN1 fibronectin 1, gene expression ratio to no drug control (D) ([4]; probe 211719_x_at) [folds] | FN1 fibronectin 1, gene expression ratio to no drug control (D) ([4]; probe 212464_s_at) [folds] | FN1 fibronectin 1, gene expression ratio to no drug control (D) ([4]; probe 216442_x_at) [folds] | KCNU1 potassium channel, subfamily U, member 1, gene expression ratio to no drug control (D) [5] [folds] | IGFBP7 insulin-like growth factor binding protein 7, gene expression ratio to no drug control (D) [6] [folds] | IGFBP4 insulin-like growth factor binding protein 4, gene expression ratio to no drug control (D) [6] [folds] | IGFBP6 insulin-like growth factor binding protein 6, gene expression ratio to no drug control (D) [6] [folds] | IGFBP1 insulin-like growth factor binding protein 1, gene expression ratio to no drug control (D) [6] [folds] | IGFBP3 insulin-like growth factor binding protein 3, gene expression ratio to no drug control (D) ([6]; probe 210095_s_at) [folds] | also measured |
| --- | --- | --- | --- | --- | --- | --- | --- | --- | --- | --- | --- | --- | --- | --- | --- | --- | --- | --- | --- | --- | --- |
| C/C=C(/C)C(=O)O[C@H]1[C@H](OC(=O)/C(C)=C\C)[C@@]2(CO)C(CC1(C)C)C1=CCC3[C@@]4(C)CC[C@H](O)C(C)(C)C4CC[C@@]3(C)[C@]1(C)[C@@H](O)[C@H]2O (stereo partly shown) [ACH-Y] | −2.0 | −2.0 | −1.7 | −2.0 | 20 | −1.3 | −1.4 | −1.3 | −1.7 | −1.3 | −1.1 | −1.2 | −1.1 | −1.1 | −1.9 | −2.7 | −2.4 | −1.8 | −1.8 | −3.5 | LAMC1, gene expression ratio to no drug control (D) ([1]; listed as YM): −1.1 folds; LAMC1, gene expression ratio to no drug control (D) ([1]; listed as YM/ACH-Y): 1.1 folds; IGFBP3 insulin-like growth factor binding protein 3, gene expression ratio to no drug control (D) ([6]; probe 212143_s_at): −5.3 folds |
| C/C=C(/C)C(=O)O[C@H]1[C@H](OC(=O)/C(C)=C\C)[C@@]2(CO)C(CC1(C)C)C1=CCC3[C@@]4(C)CC[C@H](O[C@@H]5OC(C(=O)O)[C@@H](O)C(O[C@@H]6O[C@@H](CO)C(O)C6O)C5O[C@@H]5OC(CO)[C@H](O)C(O)C5O)C(C)(C)C4CC[C@@]3(C)[C@]1(C)[C@@H](O)[C@H]2O (stereo partly drawn) [Xanifolia-Y, 3-O-[β-D-galactopyranosyl (1→2)]-α-L-arabinofuranosy (1→3)-β-D-glucuronopyranosyl-21,22-O-diangeloyl-3β, 15α, 16α, 21β, 22α, 28-hexahydroxyolean-12-ene] | −1.6 | −2.2 | −1.6 | −2.0 | 5 | −1.8 | −1.4 | −2.4 | −1.3 | −1.4 | −2.5 | −2.6 | −2.7 | −2.6 | −4.0 | −1.4 | −1.7 | −1.3 | −1.7 | −4.0 | LAMC1, gene expression ratio to no drug control (D) [1]: −1.9 folds; growth of cells compared to the DMSO control (MTT) (ES2(ovarian) cells; ES2, 10 ug/ml (F13)): 89%; viable cells by MTT assay (ES2(ovarian) cells; 7 hours): 93%; viable cells by MTT assay (ES2(ovarian) cells; 18 hours): Over 95%; viable cells by MTT assay (ES2(ovarian) cells; 24 hours): 85% and 87%; IC50 (ES2(ovarian) cells; ES2 cells): 4.4 µg/mL; IC50 (ES2(ovarian) cells; Homo sapiens, ES2, Clear cell, read-out: IC50): 4.4 µM; IC50 (ES2(ovarian) cells; Homo sapiens, ES-2, ES2 cells, combined with Paclitaxel, read-out: IC50 value for Xanifolia-Y when both drugs were used): 2.5 µg/mL; IGFBP3 insulin-like growth factor binding protein 3, gene expression ratio to no drug control (D) ([6]; probe 212143_s_at): −3.7 folds |
